Assay results: patent US8110547B2, “Compositions for buccal delivery of parathyroid hormone” (Emisphere Technologies, Inc., priority 2005, dated 2012)
Like-named read-outs stand apart in the source and are kept apart here.

Assays:
[1] = Pharmacokinetics after buccal, oral and subcutaneous administration of PTH to dogs; assay type: in vivo; settings: dog; for AUC(0-t) / Cmax / Tmax / F rel: in vivo; for F rel: bioavailability relative to subcutaneous administration, read-out: AUC0−>t BA (%)
Protocol: The animal was moderately sedated using 0.4-0.8 mg/kg midazolam (IM) and 0.03-0.04 mg/kg medetomidine IV or IM in order to minimize the risk of the animal swallowing the test material. The level of sedation was continuously monitored and respiratory rate and general activity level was noted. Once adequately sedated, the dog was moved to a flat surface and an intravenous catheter was placed in the cephalic vein. For dose application, the dog was placed on its side with its head and jaw angled to maximally hold the test material in the mouth.
For an aqueous dosing solution, a syringe filled with the dosing solution (up to 1.5 ml) was placed sublingually and infused slowly up to 0.75 ml in an equal amount at the right and left space under the tongue of the dog. For sublingual tablet, the tablets were placed under the tongue and up to 1.5 ml of saline was administered to facilitate the sublingual dissolution. On one hour post-administration, any remaining formulation was removed by syringe aspiration and the area was rinsed once with saline solution and the saline solution that was then removed by a syringe aspiration.
Once the animal recovered from the sedatives, restraint-acclimated animals was restrained using a sling for the duration of the experiment. Blood samples were collected at specific time-points, i.e., 0, 0.25, 0.5, 1, 1.5, 2, 2.5 and up to 4 hours.
For comparison of the dosing route with intraoral delivery, an oral tablet dosing study was followed. The equivalent dose of drug and carrier was prepared to be the oral formulation of tablets that were gavaged, and 1 ml of water was administered into the gavaging tubing.
The final two columns in Table 2 show the relative bioavailability to subcutaneous administration by buccal and oral administrations of PTH to dog, and the respective coefficient of variations.

[2] = Serum PTH pharmacokinetics after oral and buccal administration to rats; assay type: in vivo, Male Sprague Dawley rats; settings: rat, 0.2 mg/kg PTH with 200 mg/kg monosodium 4-MOAC; for AUC(0-inf) / AUC(0-t) / Cmax / Tmax: male, Sprague Dawley, serum, 0.2 mg/kg
Protocol: A stock solution of human recombinant PTH (1-34) was prepared by dissolving hPTH (1-34) (Eli Lilly, Indianapolis, Ind.) in deionized water to a concentration of 4 mg/ml. A stock solution of delivery agent was prepared by dissolving the delivery agent in deionized water. The pH of the resulting delivery agent solution was adjusted to between 7.5 and 8.5. A liquid buccal dosage form was prepared by mixing the PTH stock solution with the delivery agent stock solution immediately prior to dosing. For the present example, four dosage forms were prepared as described below.
The dosage forms were administered to Male Sprague Dawley rats, ranging in weight from about 250 g to about […]. Each rat was anesthesized with 2% isofiurane in pure oxygen during the whole experiment. The femoral artery was cannulated for blood sampling. The esophagus was ligated to prevent wallowing of the dosing solution. The trachea was intubated and the rat was provided with a constant flow of 2% isofiurane in oxygen.
The liquid dosage form was administered by inserting a T-shaped dosing tool into the mouth of the rat. The center of the dosing tool was placed under the tongue and the liquid dosage form (approximately […] body weight) was administered by syringe through the dosing tool, such that the dosage was distributed evenly throughout the buccal area. Following administration, the mouth was glued shut. Blood samples were drawn at predetermined periods from the femoral artery and assayed for PTH. The liquid dosage solution was allowed to remain in the buccal area for 90 minutes (e.g., the dosing duration). After 90 minutes the liquid dosage solution was removed from the buccal area by syringe.
The concentration of PTH was determined using a PTH (1-34) immunradiometric assay kit (Immutopics, San Clemente, Calif.). Samples were prepared by storage for 20 minutes between 2° C. and 8° C., followed by centrifugation at 10,000 G for 10 minutes to obtain serum. The serum concentration of PTH was than determined using a PTH (1-34) immunradiometric assay kit.
A liquid dosage form was prepared as described above wherein the dosage amount of monosodium 4-MOAC was 200 mg/kg and the dosage amount of PTH was 0.2 mg/kg. The dosage form was administered buccally as described above. Oral administration was carried out by anesthetizing the rat with a mixture of ketamine (44 mg/kg) and thorazine (1.5 mg/kg), followed by administration of the oral dosage by a gavaging trocar. The dosing duration for buccal administration was 5 and 60 minutes respectively. Blood samples were drawn from the rat as described above and the serum concentration of PTH was determined as described previously.

[3] = buccal (sublingual), formulation removed one hour post-administration
[4] = buccal 5 min dosing duration versus oral
[5] = buccal 60 min dosing duration versus oral

CC[C@H](C)[C@H](NC(=O)[C@H](CCC(=O)O)NC(=O)[C@H](CO)NC(=O)[C@@H](NC(=O)[C@@H](N)CO)C(C)C)C(=O)N[C@@H](CCC(N)=O)C(=O)N[C@@H](CC(C)C)C(=O)N[C@@H](CCSC)C(=O)N[C@@H](Cc1cnc[nH]1)C(=O)N[C@@H](CC(N)=O)C(=O)N[C@@H](CC(C)C)C(=O)NCC(=O)N[C@@H](CCCCN)C(=O)N[C@@H](Cc1cnc[nH]1)C(=O)N[C@@H](CC(C)C)C(=O)N[C@@H](CC(N)=O)C(=O)N[C@@H](CO)C(=O)N[C@@H](CCSC)C(=O)N[C@@H](CCC(=O)O)C(=O)N[C@@H](CCCN=C(N)N)C(=O)N[C@H](C(=O)N[C@@H](CCC(=O)O)C(=O)N[C@@H](Cc1c[nH]c2ccccc12)C(=O)N[C@@H](CC(C)C)C(=O)N[C@@H](CCCN=C(N)N)C(=O)N[C@@H](CCCCN)C(=O)N[C@@H](CCCCN)C(=O)N[C@@H](CC(C)C)C(=O)N[C@@H](CCC(N)=O)C(=O)N[C@@H](CC(=O)O)C(=O)N[C@H](C(=O)N[C@@H](Cc1cnc[nH]1)C(=O)N[C@@H](CC(N)=O)C(=O)N[C@@H](Cc1ccccc1)C(=O)O)C(C)C)C(C)C [PTH, human recombinant PTH (1-34)]
AUC0−>t BA (%) ([1]; subcutaneous (reference route)): 100%
AUC(0-t) ([1]; sc, subcutaneous): 8.47 ng·h/mL
Cmax ([1]; sc, subcutaneous): 6.39 ± 1.97 ng/mL
Tmax ([1]; sc, subcutaneous): 26 min
AUC(0-t) [1, 3]: 2.82 ng·h/mL
Cmax [1, 3]: 3.35 ± 2.65 ng/mL
Tmax [1, 3]: 62 min
F rel ([1]; buccal): 3.3%
AUC(0-t) ([1]; oral tablets gavaged): 0.41 ng·h/mL
Cmax ([1]; oral tablets gavaged): 0.632 ± 0.568 ng/mL
Tmax ([1]; oral tablets gavaged): 23 min
F rel ([1]; oral): 4.8%
AUC(0-inf) ([2]; buccal, 5 min dosing duration): 2.8 ng·h/mL
AUC(0-t) ([2]; buccal, 5 min dosing duration): 0.975 ng·h/mL
Cmax ([2]; buccal, 5 min dosing duration): 1.7 ng/mL
Tmax ([2]; buccal, 5 min dosing duration): 5 min
AUC(0-inf) ([2]; buccal, 60 min dosing duration): 3.44 ng·h/mL
AUC(0-t) ([2]; buccal, 60 min dosing duration): 1.29 ng·h/mL
Cmax ([2]; buccal, 60 min dosing duration): 1.82 ng/mL
Tmax ([2]; buccal, 60 min dosing duration): 15 min
AUC(0-inf) ([2]; po, oral gavage): 2.62 ng·h/mL
AUC(0-t) ([2]; po, oral gavage): 10.4 ng·h/mL
Cmax ([2]; po, oral gavage): 1.43 ng/mL
Tmax ([2]; po, oral gavage): 15 min
Buccal:Oral AUC0−>t Ratio [2, 4]: 0.94
Buccal:Oral AUC0−>∞ Ratio [2, 4]: 1.1
Buccal:Oral AUC0−>t Ratio [2, 5]: 1.2
Buccal:Oral AUC0−>∞ Ratio [2, 5]: 1.3
